Assay results published in ChEMBL document CHEMBL4041536, “Design, synthesis and biological activity of novel molecules designed to target PARP and DNA” (Bioorg Med Chem Lett, 2017).
Activity calls are given as the source filed them. The calls are words filed in the database; no cut-off is given here.

How the values were obtained:
[1] = Inhibition of PARP (unknown origin); parameters: species or system Homo sapiens
Cricetulus griseus [2] = species on record: Cricetulus griseus; experiment: Inhibition of PARP in chinese hamster VC8 cells harboring BRCA2 mutant assessed as growth inhibition; format: cell-based
Cricetulus griseus [3] = species on record: Cricetulus griseus; experiment: Selectivity ratio of PARP inhibition in chinese hamster VC8 cells harboring wild type BRCA2 to PARP inhibition in chinese hamster VC8 cells harboring BRCA2 mutant; format: cell-based
[4] = (§1) Inhibition of PARP in chinese hamster VC8 cells harboring BRCA2 mutant; format: cell-based, Cricetulus griseus
Cricetulus griseus [5] = species on record: Cricetulus griseus; experiment: as §1; format: cell-based
Cricetulus griseus [6] = species on record: Cricetulus griseus; experiment: Induction of DNA damage in chinese hamster VC8 cells harboring BRCA2 mutant by comet assay; format: cell-based
[7] = Drug uptake in nucleus of chinese hamster VC8 cells harboring BRCA2 mutant at 25 uM by DAPI staining based fluorescence microscopic method; format: ADME, Cricetulus griseus
[8] = Drug uptake in nucleus of chinese hamster VC8 cells harboring wild type BRCA2 at 25 uM by DAPI staining based fluorescence microscopic method; format: ADME, Cricetulus griseus
[9] = Inhibition of PARP in Wistar rat pancreatic islet nuclear fraction using histone H1 as substrate in presence of [14C]NAD after 10 mins by scintillation counting method

SMILES | inhibition (Cricetulus griseus [2]) | Selectivity ratio (Cricetulus griseus [3]) | also measured
Cc1nc2ccccc2c(=O)[nH]1 |  |  | IC50 [1]: 5 to 120 µM
CN(C)/N=N/c1cccc2c(=O)[nH]ccc12 | inactive | 2 to 7 | 
CN/N=N/c1ccc2c3c(cccc13)C(=O)NC2=O | inactive | 2 to 7 | 
O=c1[nH]ccc2c([N+]3=NN(CCCl)CC3)cccc12 |  |  | IC50 [4]: 23.9 µM
O=C1NC(=O)c2ccc([N+]3=NN(CCCl)CC3)c3cccc1c23.[Cl-] |  | 25 | IC50 [4]: 1 to 1.7 µM; inhibition (Cricetulus griseus [5]): Dose-dependent effect; Activity (Cricetulus griseus [6]): Active; Drug uptake [7]: Not Active; Drug uptake [8]: Not Active
ClCCN1CC[N+](c2ccc3ncnc(Nc4cccc(Cl)c4)c3c2)=N1 |  |  | IC50 [4]: 15.2 µM; Activity (Cricetulus griseus [6]): Active
Nc1ccc2c3c(cccc13)C(=O)NC2=O |  | 77 | IC50 [4]: 2.59 µM
CN/N=N/c1cccc2c(=O)[nH]ccc12 | inactive | 2 to 7 | 
CN(C)/N=N/c1ccc2c3c(cccc13)C(=O)NC2=O | inactive | 2 to 7 | 
NC(=O)c1cccc(N)c1 [3-AMINOBENZAMIDE] |  |  | IC50 [9]: 5 to 120 µM
CN(CO)/N=N/c1cccc2c(=O)[nH]ccc12 | inactive | 2 to 7 | 
O=C1NC(=O)c2ccc(/N=N/N(CCCl)CCCl)c3cccc1c23 | inactive |  | 
Nc1cccc2c(=O)[nH]ccc12 | inactive |  | 
CN(CO)/N=N/c1ccc2c3c(cccc13)C(=O)NC2=O | inactive | 2 to 7 | 
